# Assay: Solubility of ganaxolone using water soluble beta cyclodextrins
# Type: physicochemical
# Conditions: water soluble beta cyclodextrins (beta-sulfobutyl-cyclodextrin, 2-hydroxypropylbetacyclodextrin)
# Source text: Ganaxolone formulations suitable for intramuscular, subcutaneous, or intravenous injection may comprise physiologically acceptable sterile aqueous or non-aqueous solutions, dispersions, suspensions or emulsions, and sterile powders for reconstitution into sterile injectable solutions or dispersions. Examples of suitable aqueous and non-aqueous carriers, diluents, solvents, or vehicles including water, ethanol, polyols (propylene glycol, polyethylene-glycol, glycerol, cremophor and the like), suitable mixtures thereof, vegetable oils (such as olive oil) and injectable organic esters such as ethyl oleate. Additionally, Ganaxolone can be dissolved at concentrations of >1 mg/ml using water soluble beta cyclodextrins (e.g. beta-sulfobutyl-cyclodextrin and 2-hydroxypropylbetacyclodextrin. Proper fluidity can be maintained, for example, by the use of a coating such as lecithin, by the maintenance of the required particle size in the case of dispersions, and by the use of surfactants. Ganaxolone formulations suitable for subcutaneous injection may also contain additives such as preserving, wetting, emulsifying, and dispensing agents. Prevention of the growth of microorganisms can be ensured by various antibacterial and antifungal agents, such as parabens, benzoic acid, benzyl alcohol, chlorobutanol, phenol, sorbic acid, and the like. […]
smiles,measurement,value
"CC(=O)[C@H]1CC[C@H]2[C@@H]3CC[C@H]4C[C@](C)(O)CC[C@]4(C)[C@H]3CC[C@]12C [Ganaxolone, 3α-hydroxy-3β-methyl-5α-pregnan-20-one]",concentration dissolved,> 1000 µg/mL

# — patent US9029355B2, “Solid ganaxolone compositions and methods for the making and use thereof” (Marinus Pharmaceuticals, priority 2005, dated 2015)
